Laboratory results: patent US20240159740A1, “METHOD FOR DIRECT ANALYSIS OF FUNCTIONAL AVIDITY OF T CELLS” (priority 2021, published 2024)
“And” between values parts separate entries of the source, which are not always exact repeats. Identical values can stand only once.

Legend:
[1] = system: serum IgG antibodies; conditions: sera 1:100 from iCope T cell assay responders and non-responders
Description: After blocking (1 h, 30° C.) serum samples were diluted 1:100 and incubated for 1 h at 30° C. HRP-coupled, anti-human-IgG secondary antibody (Jackson Immunoresearch) was diluted 1:5000 (Jackson Immunoresearch) and added to the serum samples for 1 h at 30° C., then HRP substrate was added (TMB, Kem-En-Tec). The reaction was stopped by adding sulfuric acid and absorption was measured at 450 nm using a FlexStation 3.

[2] = system: expanded CD40L+4-1BB+ CD4+ short-term T cell lines; test: Restimulation of expanded short-term T cell lines with autologous APC and peptides or peptide pools; format: cell-based, human; conditions: T cell lines from 5 unexposed individuals
[3] = system: CD40L+4-1BB+ CD4+ T cells; test: Ex vivo T cell stimulation of PBMC, stimulation index of CD40L+4-1BB+ CD4+ T cells by flow cytometry; format: cell-based, human
[4] = system: CD3 surface expression in CD40L+4-1BB+ CD4+ T cells; format: cell-based, human

## Biotin-Ttds-PSKPSKRSFIEDLLFNKV-OH [204_-1]
[1]
  peptide binding IgG antibodies detected in serum: in all individuals

## FIEDLLFNKVTLADA [compound 205]
[2]
  donors whose expanded SARS-CoV-2 S-II-cross-reactive T cells were stimulated by the peptide: all 5 donors

## SKRSFIEDLLFNKVT [compound 204]
[2]
  donors whose expanded SARS-CoV-2 S-II-cross-reactive T cells were stimulated by the peptide: all 5 donors

## SFIEDLLFNKVTLAD [iCope]
[3]; BNT162b2 vaccinated individuals
  proportion of individuals with iCope-recognizing CD4+ T cells: 97%
[3]; SARS-CoV-2 / COVID-19 convalescents
  proportion of individuals with iCope-reactive CD4+ T cells: 50% and 50-60%
[3]; initially after BNT162b2 vaccination
  contribution of peptide-specific T cells to the CD40L+4-1BB+ cells in S-II stimulations: up to 100%
[3]; unexposed individuals
  proportion of individuals with iCope-reactive CD4+ T cells: 20%
[3]; young, unexposed donors
  strong responders (stim. index>3): 44%
  weak responders (stim. index>1.5): 39%
[4]
  donors in which reactive T cells increased in frequency and in functional avidity: 10 of 17
[4]; day 7 and day 14 after BNT162b2 primary vaccination, 31 donors
  donors responding with high functional avidity T cells: 94%
